Results on twelve compounds are retold here after PMC3206494, “Discovery of potent, novel, non-toxic anti-malarial compounds via quantum modelling, virtual screening and in vitro experimental validation” (Malaria Journal, 2011).

The first series has as its system P. falciparum. The series is described as follows: In vitro anti-malarial activity, [3H]-hypoxanthine incorporation assay. In kind it is cell-based. Particulars: Plasmodium falciparum, read-out: Average Anti-malarial Activity (concentration corresponding to 50% inhibition). As for the experimental part: The in vitro anti-malarial activity was measured using the [3H]-hypoxanthine incorporation assay with various strains of P. falciparum (Roche). Results were expressed as the concentration corresponding to 50% inhibition. The anti-malarial assays were performed at the Swiss Tropical Institute, Basel, Switzerland.
`CCN(CC)CCCC(C)Nc1ccnc2cc(Cl)ccc12` (stereo not shown) [chloroquine, reference compound]: the IC50 is 0.0042 µg/mL.

The same series, now with this note: Plasmodium falciparum, read-out: IC50 (anti-malarial activity).
Regarding `CCN(CC)CCCC(C)Nc1ccnc2cc(Cl)ccc12` (stereo not shown) [chloroquine, reference compound], the IC50 turned out to be 13 nM.

The same series, now with this note: Plasmodium falciparum; P. falciparum, in vitro; data from two independent assays; read-out: Average Anti-malarial Activity (concentration corresponding to 50% inhibition).
Consider `CC1=C(CCC(C)N(C)Cc2ccc(OCCCN3CCCC3)cc2)C(C)(C)CCC1` (stereo not shown) [GR-M010], for which the IC50 came out at 0.172 µg/mL.

Consider `Cc1ccc2c(c1)N(CCCC(=O)NCCCN1CCC(Cc3ccccc3)CC1)C(=O)CO2` [GR-M006], for which the IC50 amounted to 1.63 µg/mL.

Turning to `Cc1cccc(C)c1OCCOCC(O)CN1CCN(Cc2ccc3c(c2)OCO3)CC1` (stereo not shown) [GR-M005], the IC50 came out at 9.74 µg/mL.

As to `Cc1ccc(C)c(NCC(O)COc2ccc(OCC(O)CNc3cc(C)ccc3C)cc2)c1` (stereo not shown) [GR-M004], the IC50 came out at 4.78 µg/mL.

Take `Cc1ccc(Cn2cc(CCC(=O)NCCCN3CC(C)CC(C)C3)c3ccccc32)cc1` (stereo not shown) [GR-M007]: the IC50 is 0.446 µg/mL.

As for `CC(C)(C)CC(C)(C)Cc1ccc(OCCOCC[N+](C)(C)Cc2ccccc2)cc1` [GR-M011], the IC50 is 0.086 µg/mL.

Regarding `CC(NC(=O)CN1CCCN(CC(=O)NC(C)(C)C)CC1)c1ccc2c(c1)CCCC2` (stereo not shown) [GR-M002], the IC50 was determined as 5.38 µg/mL.

Consider `Cc1cccc[n+]1CCCCCCCCCC[n+]1ccccc1C` [GR-M009], for which the IC50 came to 0.013 µg/mL.

The series is the same for the next values; noted with them: Plasmodium falciparum; P. falciparum, in vitro; read-out: IC50 (anti-malarial activity).
`O=CN1CCN(CC(O)COc2ccc(OCC(O)CN3CCN(C=O)CC3)cc2)CC1` (stereo not shown) [GR-M003]: the IC50 is > 20000 nM.

Regarding `CC1=C(CCC(C)N(C)Cc2ccc(OCCCN3CCCC3)cc2)C(C)(C)CCC1` (stereo not shown) [GR-M010], the IC50 amounted to 332 nM.

For `Cc1ccc2c(c1)N(CCCC(=O)NCCCN1CCC(Cc3ccccc3)CC1)C(=O)CO2` [GR-M006], the IC50 came to 3520 nM.

Turning to `Cc1cccc(C)c1OCCOCC(O)CN1CCN(Cc2ccc3c(c2)OCO3)CC1` (stereo not shown) [GR-M005], the IC50 came to 18900 nM.

Take `Cc1ccc(C)c(NCC(O)COc2ccc(OCC(O)CNc3cc(C)ccc3C)cc2)c1` (stereo not shown) [GR-M004]: the IC50 amounted to 10300 nM.

`Cc1ccc(Cn2cc(CCC(=O)NCCCN3CC(C)CC(C)C3)c3ccccc32)cc1` (stereo not shown) [GR-M007]: the IC50 amounted to 999 nM.

On to `CC(C)(C)CC(C)(C)Cc1ccc(OCCOCC[N+](C)(C)Cc2ccccc2)cc1` [GR-M011], for which the IC50 amounted to 185 nM.

Turning to `CC(NC(=O)CN1CCCN(CC(=O)NC(C)(C)C)CC1)c1ccc2c(c1)CCCC2` (stereo not shown) [GR-M002], the IC50 stood at 12500 nM.

For the compound `Cc1cccc[n+]1CCCCCCCCCC[n+]1ccccc1C` [GR-M009], the IC50 is 27 nM.

With `CC(C)(C)c1cnnn1-c1ccc(C=Cc2ccc(C=Cc3ccc4ccccc4n3)cc2)cc1` [GR-M001], the IC50 was > 20000 nM.

A further series deals with mammalian cytotoxicity. The series is described as follows: Toxicity assay, colorimetric MTT assay (mammalian cytotoxicity). In kind it is cell-based. The following applies: data from two independent assays. As for the experimental part:
Toxicity was determined by using the colorimetric 3-(4,5-dimethylthiazol-2-yl)-2,5-diphenyltetrazoliumbromide (MTT) assay. The toxicity assays were performed at the Swiss Tropical Institute, Basel, Switzerland.
On the technique in general: Tetrazolium assays rely on reduction of a dye to a coloured formazan, in cell work by metabolically active cells.
For the compound `CC1=C(CCC(C)N(C)Cc2ccc(OCCCN3CCCC3)cc2)C(C)(C)CCC1` (stereo not shown) [GR-M010], the “Average Cytotoxicity” value turned out to be 4860 ng/mL.

As to `Cc1ccc(Cn2cc(CCC(=O)NCCCN3CC(C)CC(C)C3)c3ccccc32)cc1` (stereo not shown) [GR-M007], the “Average Cytotoxicity” value stood at 10420 ng/mL.

Consider `COc1cc([C@@H]2c3cc4c(cc3[C@H](O)[C@H]3COC(=O)[C@H]23)OCO4)cc(OC)c1OC` [Podophyllotoxin, reference compound], for which the “Average Cytotoxicity” value came out at 9.5 ng/mL.

For `CC(C)(C)CC(C)(C)Cc1ccc(OCCOCC[N+](C)(C)Cc2ccccc2)cc1` [GR-M011], the “Average Cytotoxicity” value stood at 3250 ng/mL.

Tested on in another series: not listed separately
Briefly: Solubility in DMSO (footnote to Table 2). The format is physicochemical. The arrangement: key: *: Not fully soluble in DMSO. The following applies: footnote mark on the anti-malarial activity value. The text has this:
Table 2 Summary of anti-malarial activity and cytotoxicity | column: Average Anti-malarial Activity**(ng/ml)
In the case of `CC(C)(C)c1cnnn1-c1ccc(C=Cc2ccc(C=Cc3ccc4ccccc4n3)cc2)cc1` [GR-M001], the “Solubility in DMSO” value was “*”.
